Results on 1 compound are retold here after patent publication US6699681B2, “Endothelin converting enzymes and the amyloid β peptide” (Mayo Foundation for Medical Education and Research, priority 2000, dated 2004).

One experiment has as its system H4 neuroglioma cells. Description: Extracellular Aβ after treatment of H4 cells with metalloprotease inhibitors. In kind it is cell-based, human. Here is the method: (§1) Human and guinea pig Aβ40 or Aβ42 was measured in plasma by sandwich ELISA as previously described (Suzuki et al., 1994, Science, 264:1336-1340) using the BAN-50/BA-27 or BAN-50/BC-05 antibody systems, respectively (Takeda; Japan). Hamster Aβ40- or Aβ42-derived from CHO cells was measured using the BNT-77/BA-27 or BNT-77/BC-05 antibody systems, respectively. Aβ concentration in samples was determined by comparison to synthetic Aβ40 or Aβ42 standards (Bachem, Switzerland). Data was obtained from triplicate wells.
In particular, the sandwich ELISA used herein was performed as follows: 96-well microtiter plates were coated overnight at 4° C. with 100 μl of a 5 μg/ml dilution of primary antibody in sodium carbonate coating buffer (SCCB; 0.1 M Na2CO3, pH 9.6). Plates were blocked overnight at 4° C. with 300 μl of BLOCKAGE Solution (PBS+1.0% BLOCKAGE (Snow Brand Milk Products, Japan), 0.05% NaN3, pH 7.4). Samples for analysis and synthetic Aβ standards (Bachem, Switzerland) were diluted in buffer EC (0.02 M NaH2PO4, 0.002 M EDTA, 0.4 M NaCl, 0.2% BSA, 0.05% CHAPS, 0.04% BLOCKAGE, 0.05% NaN3, pH 7.0) and allowed to incubate on the plates overnight at 4° C. Plates were washed twice with PBS (8 mM Na2HPO4, 1.5 mM KH2PO4, 139 mM NaCl, 2.7 mM KCl, pH 7.4) and 100 μl of secondary antibody directly coupled to HRP (EZ-LINK™ Plus Activated Peroxidase kit (contents of kit: peroxidase, 5 M sodium cyanoborohydride solution (NaBH3CN), quenching buffer (3 M ethanolamine, pH 9.0), BupH™ phosphate buffered saline, Buph™ carbonate-bicarbonate buffer), according to manufacturers directions; Pierce Chemical Co., Rockford, Ill.) was allowed to bind either 4 hrs at room temperature or overnight at 4° C. Plates were then washed twice with PBS containing 0.05% Tween 20 followed by two additional washes in PBS. Detection was performed using TMB (3,3′,5,5′-tetramethyl-benzidine) as an HRP substrate according to the manufacturer's specifications (Kirkegaard & Perry Laboratories (KPL), Gaithersburg, Md.) and the reaction stopped by the addition of 100 μl of 1N H3PO4. Plates were read at 450 nm in a SpectraMax Plus spectrophotometer (Molecular Devices; Sunnyvale, Calif.) and analyzed by SOFTmax® PRO software. Aβ40 or Aβ42 were quantitated by comparison with the values obtained for each synthetic Aβ standard from the same plate.
Cells were passaged into 6-well plates one day prior to treatment and grown to confluence. […] After treatment, the culture medium was harvested, spun at 14,000 xg, and the supernatant analyzed for Aβ40 or Aβ42 using sandwich ELISA and for secreted APP using Western blot. […] Bound antibody was detected by incubation with the appropriate HRP-linked secondary antibody (Amersham, Uppsala, Sweden) using ECL™ Western blotting reagents (Amersham) followed by exposure to X-ray film. […]

The subject of a further experiment is CHO cells. Kind of experiment: Aβ in conditioned medium of CHO cells (lack ECE activity) treated with phosphoramidon. In kind it is cell-based, hamster. The following applies: non-transfected CHO cells; high concentrations of phosphoramidon. Here is the method: as §1
(§2) In particular, the sandwich ELISA used herein was performed as follows: 96-well microtiter plates were coated overnight at 4° C. with 100 μl of a 5 μg/ml dilution of primary antibody in sodium carbonate coating buffer (SCCB; 0.1 M Na2CO3, pH 9.6). […] Plates were read at 450 nm in a SpectraMax Plus spectrophotometer (Molecular Devices; Sunnyvale, Calif.) and analyzed by SOFTmax® PRO software. Aβ40 or Aβ42 were quantitated by comparison with the values obtained for each synthetic Aβ standard from the same plate.
(§3) Cells were passaged into 6-well plates one day prior to treatment and grown to confluence. […] After treatment, the culture medium was harvested, spun at 14,000 xg, and the supernatant analyzed for Aβ40 or Aβ42 using sandwich ELISA and for secreted APP using Western blot. […]

In another experiment the test system is HUVEC cells. Description: Aβ accumulation in HUVEC cells treated with phosphoramidon. It is filed as cell-based, human. The note with it: high doses of phosphoramidon. Here is the method:
as §1, §2, §3

For experiment [1], the system named is ECE-transfected CHO cells. Kind of experiment: Removal of synthetic Aβ40 spiked into culture medium of ECE-transfected CHO cells. In kind it is cell-based, hamster. Here is the method:
as §1, §2
To determine whether extracellular removal of Aβ accounted, at least in part, for the dramatic decrease in extracellular Aβ concentration in ECE-transfected cell lines, synthetic Aβ40 was spiked into the culture medium in the presence or absence of phosphoramidon and the amount of unhydrolyzed Aβ was determined at 6 or 24 hrs by sandwich ELISA. […]

A further experiment deals with neuronal cell lines. The following applies: previously shown; cited from earlier work.

“Also recorded” adds a separate entry of the source.

Consider `CC(C)C[C@H](NP(=O)(O)O[C@@H]1O[C@@H](C)[C@H](O)[C@@H](O)[C@H]1O)C(=O)N[C@@H](Cc1c[nH]c2ccccc12)C(=O)O` [phosphoramidon], for which, in the experiment on H4 neuroglioma cells (H4 cells, parallel to the spiking experiment), the “Aβ accumulation in parallel culture wells without synthetic Aβ” value is given as “promoting Aβ accumulation”. Moreover, the “extracellular Aβ accumulation” value with H4 neuroglioma cells (H4 neuroglioma cells, thiorphan or captopril at concentrations greater than 1000-times the reported IC50 for the target enzymes) is “significant elevation”. Also, the “concentration of Aβ in the conditioned medium” value in the experiment with CHO cells is given as “did not affect; also recorded: unaffected”. In addition, the Aβ accumulation entry in the experiment on HUVEC cells is “virtually undetectable levels of Aβ accumulation unless treated with high doses of phosphoramidon”. In addition, the “extracellular concentration of synthetic Aβ” value in experiment [1] (6 hr incubation, ECE-transfected and untransfected CHO cells, spiked synthetic Aβ40) is given as “not affected”. Moreover, the “ECE-1a-induced increase in Aβ removal” value in experiment [1] (24 hr, ECE-1a-transfected CHO cells treated with phosphoramidon) was “completely attenuated”. For the same compound, the “increase in the concentration of Aβ40 and Aβ42 in the conditioned medium” value in the experiment on neuronal cell lines is given as 2- to 3 fold.
